Data reported in US20210244686A1, “Novel Systems And Methods For The Therapeutic Use of Cannabinoids or Cannabinoid Analogs to Increase The Lipid Order of Cholesterol Containing Cell Membranes” (The Regents of the University of Colorado a body corporate, priority 2018, published 2021).

Assays:
[1] = tested on: SKNBE2 neuroblastoma cells; test: Flow cytometric analysis of rhodamine-glibenclamide staining in live cells; format: cell-based, human; conditions: live cells, flow cytometry
[2] = tested on: endoplasmic reticulum in SKNBE2 and HaCaT keratinocyte cells; test: Confocal microscopy of rhodamine-glibenclamide staining, ER structure; format: cell-based, human; conditions: for alteration of the structure of the endoplasmic reticulum: SKNBE2 and HaCaT keratinocyte cells
Protocol: FIG. 16. Rhodamine-glibenclamide staining in live cells is visualized by confocal microscopy in live cells. ER structure is perturbed after 2 hours of exposure to CBD and o-1602, but not for o-1821 exposure.

[3] = tested on: HEK293T cells; test: Live cell microscopy apoptosis assay (caspase 3/7 dye); format: cell-based; conditions: for apoptotic response to combinatorial 25-hydroxy cholesterol/CBD treatment: 25-hydroxy cholesterol 15 μg/ml, CBD 20 μM, U18666A 10 μM or VULM 1457 5 μM, 24 hours
Protocol: In order to gain further insight into the sensitivity of CBD treated cells to 25-hydroxy cholesterol, the present inventors repeated the apoptosis assay in SK-N-BE(2) and HEK293T cells with combinatorial 25-hydroxy cholesterol/CBD stimulation using sublethal doses of 25-hydroxy cholesterol (15 μg/ml) and CBD (20 μM) in the presence or absence of either the chemical inhibitor of cholesterol transport (U18666A, 10 μM) or cholesterol storage (VULM 1457, 5 μM).
FRAP experiments reveal that DHA and CBD have opposing effects on the lateral diffusion of fluorescently labelled cholesterol in synthetic membranes. Although this implies that CBD increases lipid order and that DHA decreases lipid order, it remains unclear how relevant these biophysical effects of CBD and DHA are to cellular physiology. As a result, the present inventors sought to determine whether CBD and DHA have opposing effects on cells. To this end, the present inventors repeated the live cell apoptosis assays in cells exposed to increasing doses of DHA to determine how DHA affects cell death.

[4] = tested on: SK-N-BE(2) cells; test: as above; conditions: for apoptotic response to combinatorial 25-hydroxy cholesterol/CBD treatment: 25-hydroxy cholesterol 15 μg/ml, CBD 20 μM, U18666A 10 μM or VULM 1457 5 μM, 24 hours
Protocol: To accurately measure cellular apoptosis over time, the present inventors performed live cell microscopy experiments with cells loaded with both DNA and caspase 3/7 dyes, which enables continuous and precise quantification of apoptosis at the single cell level.
Cell viability for SK-N-BE(2) cells was conducted using a fluorometric cell viability assay using Resazurin (PromoKine) according to the manufacturer's instructions. […] Dyes were added at the time of seeding, 18-24 hours prior to performing experiments.
Experiments were performed using an ImageXpress MicroXL microscope and a 10× objective, where images were acquired for each well at the indicated time-points using DAPI and FITC filter sets. […] Percent apoptotic cells was calculated from the sum of apoptotic cell pixels divided by the sum of all cell pixels for each field of view.

[5] = FRAP of NBD-cholesterol in synthetic membrane monolayers; conditions: DHA 20 μM plus CBD
From the text: CBD's ability to affect cholesterol orientation in both synthetic and cell derived ER membranes implies that CBD may contribute to increased lipid order. The ability of cholesterol oxidase assays to reveal alterations in lipid order has been previously reported in studies noting that cholesterol oxidase can preferentially target caveolar domains, which are ordered lipid domains. Another hallmark of lipid order is a decrease in lateral diffusion of lipids. As a result, the present inventors aimed to measure CBD's ability to perturb the lateral diffusion of fluorescently labelled cholesterol (NBD-cholesterol) in synthetic membranes. The present inventors deposited PC SUVs containing 20% moles of cholesterol and 2% moles NBD-cholesterol on glass-bottom multi-well imaging plates, followed by ultra-sonification to construct fluorescently labelled membrane monolayers. Using these monolayers and confocal microscopy, the inventor's performed fluorescence recovery after photobleaching (FRAP) experiments to measure the kinetics of recovery of fluorescent cholesterol. […] This effect of CBD on lateral diffusion could be rescued with simultaneous treatment with the lipid disordering agent DHA (FIGS. 6G, I). There are two proposed models for how DHA affects cholesterol in membranes. […]

[6] = DHA 75 μM with MBCD 300 μM or CBD 6.25 μM

Row | Molecule | rhodamine-glibenclamide fluorescence [1] | alteration of the structure of the endoplasmic reticulum [2] | also measured
1 | C=C(C)[C@@H]1CCC(C)=C[C@H]1c1c(C)cc(O)cc1O [o-1602, 5-methyl-4-[(1R,6R)-3-methyl-6-(1-methylethenyl)-2-cyclohexen-1-yl]-1,3-benzenediol] | Enhanced fluorescence | observed | ER structure ([2]; after 2 hours of exposure, live cells): perturbed
2 | CC(C)c1c(C(=O)Nc2ccccc2)c(-c2ccccc2)c(-c2ccc(F)cc2)n1CC[C@@H](O)C[C@@H](O)CC(=O)O [Atorvastatin] | Enhanced fluorescence |  | 
3 | CCCCCCC(C)(C)c1cc(OC)c(C2C=C(CO)C3CC2C3(C)C)c(OC)c1 (stereo not drawn) [HU-308, 4-[4-(1,1-dimethylheptyl)-2,6-dimethoxyphenyl]-6,6-dimethyl-bicyclo[3.1.1]hept-2-ene-2-methanol] | Enhanced fluorescence |  | 
4 | methyl beta cyclodextrin [MBCD] |  |  | effect on DHA induced apoptosis [3, 6]: delay apoptosis; effect on DHA induced apoptosis [4, 6]: completely cancel apoptosis
5 | C=C(C)[C@@H]1CCC(C)=C[C@H]1c1c(O)cc(O)cc1CCCCC [abnormal CBD, 4-[(1R,6R)-3-Methyl-6-(1-methylethenyl)-2-cyclohexen-1-yl]-5-pentyl-1,3-benzenediol] | Enhanced fluorescence | not | 
6 | C=C(C)[C@@H]1CCC(C)=C[C@H]1c1c(O)cc(CCCCC)c(C(=O)O)c1O [Cannabidiolic Acid, cannabidiolic acid] | Enhanced fluorescence | not | 
7 | CC(C)c1cccc(C(C)C)c1NC(=O)Nc1ccc(Sc2ccc([N+](=O)[O-])cc2)cc1 [VULM 1457] |  |  | apoptotic response to combinatorial 25-hydroxy cholesterol/CBD treatment [3]: restore the apoptotic response; apoptotic response to combinatorial 25-hydroxy cholesterol/CBD treatment [4]: restore the apoptotic response
8 | O=C1[C@H](CC[C@H](O)c2ccc(F)cc2)[C@@H](c2ccc(O)cc2)N1c1ccc(F)cc1 [Ezetimibe] | Enhanced fluorescence |  | 
9 | CC/C=C\C/C=C\C/C=C\C/C=C\C/C=C\C/C=C\CCC(=O)O [DHA] |  |  | effect of CBD on lateral diffusion with simultaneous DHA [5]: rescued; apoptosis ([3]; relatively low doses of DHA): induce apoptosis; apoptosis ([4]; relatively low doses of DHA): induce apoptosis
10 | CCN(CC)CCO[C@H]1CC[C@@]2(C)C(=CC[C@@H]3[C@@H]2CC[C@]2(C)C(=O)CC[C@@H]32)C1 [U18666A] |  |  | apoptotic response to combinatorial 25-hydroxy cholesterol/CBD treatment [3]: restore the apoptotic response; apoptotic response to combinatorial 25-hydroxy cholesterol/CBD treatment [4]: restore the apoptotic response
11 | C[C@H](CO)NC(=O)CCC/C=C\C/C=C\C/C=C\C/C=C\C(C)(C)CCCCC#N [o-1821] | Enhanced fluorescence | not | 
